Data reported in ChEMBL document CHEMBL5214905 (J Med Chem, 2021).
Calls of active or inactive are those of the source. The calls are words filed in the database; no cut-off is given here.

Experiments:
[1] = Toxicity in MPTP induced C57BL/6J mouse neurodegenerative model assessed as no change in kidney weight treated with MPTP for 7 days followed by compound administration at 10 to 30 mg/kg, po measured upto 32 days; assay type: organism-based; details: in vivo, 768 h, dose 10-30 mg/kg, time < 32 day
Mus musculus [2] = assay: Neuroprotective activity in MPTP induced neurodegenerative C57BL/6J mouse model blood assessed as increase in tryptophan metabolite KYNA treated with MPTP for 7 days followed by compound administration at 30 mg/kg, po by LC-MS/MS analysis; assay type: functional, organism-based
[3] = Ratio of drug concentration in unbound brain to unbound plasma in Kunming mouse assessed as blood brain barrier permeability measured at 0.5 to 12 hrs by HPLC analysis; details: time 0.5-12 hrs
[4] = Toxicity in MPTP induced C57BL/6J mouse neurodegenerative model assessed as no change in spleen weight treated with MPTP for 7 days followed by compound administration at 10 to 30 mg/kg, po measured upto 32 days; assay type: organism-based; details: in vivo, 768 h, dose 10-30 mg/kg, time < 32 day
Cytochrome P450 2C9 = Cytochrome P450 2C9 (Homo sapiens, UniProt P11712); assay: Inhibition of human liver microsome CYP2C9 using 4'-hydroxy diclofenac as substrate incubated for 10 mins by LC/MS/MS analysis; assay type: microsomes
[5] = biological target: Indoleamine 2,3-dioxygenase 1 (Homo sapiens, UniProt P14902); assay: Inhibition of human IDO1 (12 to 403 aa) expressed in Escherichia coli Transetta (DE3) by nanodrop 2000c spectrophotometric analysis
Mus musculus [6] = assay: In vivo antiinflammatory activity in MPTP induced C57BL/6J mouse neurodegenerative model assessed as decrease in IL-1 beta expression treated with MPTP for 7 days followed by compound administration at 30 mg/kg, po by Western blotting analysis; assay type: functional, organism-based
BCRP [7] = assay: Permeability in human Caco-2 expressing BCRP cells across apical to basolateral side by measuring ratio of the final amount of the compound in donor and receiver chambers to the initial amount of the compound in the donor chamber in presence of novobiocin relative to control; assay type: ADME, cell-based; details: Caco-2, with novobiocin (concentration not stated)
Mus musculus [8] = assay: Neuroprotective activity in MPTP induced C57BL/6J mouse neurodegenerative model treated with MPTP for 7 days followed by compound administration at 10 to 30 mg/kg, po measured on day 6 to 12 upto 180 secs at 25 rpm by rota-rod test; assay type: functional, organism-based; details: dose 10-30 mg/kg, time 6-12 day
Mus musculus [9] = assay: Neuroprotective activity in MPTP induced C57BL/6J mouse neurodegenerative model assessed as increase in tyrosine hydroxylase expression in positive neuron cells in brain SNpc treated with MPTP for 7 days followed by compound administration at 30 mg/kg, po by IHC staining method; assay type: functional, organism-based; details: Substantia nigra pars compacta
[10] = biological target: Dual specificity tyrosine-phosphorylation-regulated kinase 1B (Homo sapiens) (UniProt Q9Y463); assay: Inhibition of human wildtype full length DYRK1B expressed in bacterial system at 10 uM relative to control
[11] = Clearance in Sprague-Dawley rat plasma at 100 mg/kg, iv measured after 0.083 to 24 hrs by HPLC analysis; assay type: ADME, organism-based; details: time 0.083-24 hrs
Mus musculus [12] = assay: Neuroprotective activity in MPTP induced neurodegenerative C57BL/6J mouse model assessed as decrease in tryptophan metabolite QUIN in mouse striatum treated with MPTP for 7 days followed by compound administration at 30 mg/kg, po by LC-MS/MS analysis; assay type: functional, organism-based
CYP2C9 = CYP2C9 (Homo sapiens, UniProt P11712); assay: Inhibition of human liver microsome CYP2C9 using 4'-hydroxy diclofenac as substrate incubated at 3 uM for 10 mins by LC/MS/MS analysis relative to control; details: liver microsomes, probe 4'-hydroxy diclofenac (so in the source)
[13] = Volume of distribution at steady state in Sprague-Dawley rat plasma at 100 mg/kg, po measured after 0.083 to 24 hrs by HPLC analysis; assay type: ADME, organism-based; details: in vivo, time 0.083-24 hrs
BCRP [14] = assay: Permeability in human Caco-2 expressing BCRP cells across basolateral to apical side by measuring ratio of the final amount of the compound in donor and receiver chambers to the initial amount of the compound in the donor chamber in presence of novobiocin relative to control; assay type: ADME, cell-based; details: Caco-2, with novobiocin (concentration not stated)
[15] = biological target: Receptor-type tyrosine-protein kinase FLT3 (Homo sapiens) (UniProt P36888); assay: Inhibition of human wildtype partial length FLT3 expressed in bacterial system at 10 uM relative to control
[16] = Toxicity in MPTP induced C57BL/6J mouse neurodegenerative model assessed as no change in lung weight treated with MPTP for 7 days followed by compound administration at 10 to 30 mg/kg, po measured upto 32 days; assay type: organism-based; details: in vivo, 768 h, dose 10-30 mg/kg, time < 32 day
[17] = Protein binding in Kunming mouse brain assessed as binding rate by LC-MS/MS analysis relative to control; assay type: ADME, tissue-based; details: read-out: PB (converted)
[18] = AUC (0 to 12 hrs) in Sprague-Dawley rat plasma at 100 mg/kg, po measured after 0.083 to 24 hrs by HPLC analysis; assay type: ADME, organism-based; design: time lower 0.083 hrs, dose 100 mg/kg, time upper 24 hrs, route po
[19] = Half life in Sprague-Dawley rat plasma at 100 mg/kg, iv by HPLC analysis; assay type: ADME, organism-based
[20] = Toxicity in MPTP induced C57BL/6J mouse neurodegenerative model assessed as no change in liver weight treated with MPTP for 7 days followed by compound administration at 10 to 30 mg/kg, po measured upto 32 days; assay type: organism-based; details: in vivo, 768 h, dose 10-30 mg/kg, time < 32 day
BCRP [21] = assay: Apparent permeability in human Caco-2 expressing BCRP cells across apical to basolateral side; assay type: ADME, cell-based; details: read-out: permeability
Mus musculus [22] = assay: Neuroprotective activity in MPTP induced C57BL/6J mouse neurodegenerative model assessed as normal fiber innervation in brain treated with MPTP for 7 days followed by compound administration at 30 mg/kg, po by IHC staining method; assay type: functional, organism-based
MDR1 = assay: Apparent permeability in MDCKII expressing MDR1 cells across basolateral to apical side; assay type: ADME, cell-based, Canis lupus familiaris, MDCK-II; details: dog, MDCK-MDR1; read-out: permeability
BCRP [23] = assay: Apparent permeability in human Caco-2 expressing BCRP cells across basolateral to apical side in presence of novobiocin; assay type: ADME, cell-based; details: Caco-2, with novobiocin (concentration not stated), read-out: permeability
Mus musculus [24] = assay: Neuroprotective activity in MPTP induced neurodegenerative C57BL/6J mouse model assessed as decrease in tryptophan metabolite QUIN in mouse substantia nigra treated with MPTP for 7 days followed by compound administration at 30 mg/kg, po by LC-MS/MS analysis; assay type: functional, organism-based
[25] = biological target: Glycogen synthase kinase-3 beta (Homo sapiens) (UniProt P49841); assay: Inhibition of human wildtype full length GSK3 beta expressed in bacterial system at 10 uM relative to control
Glycogen synthase kinase-3 beta (Homo sapiens), sequence (P49841 whole entry, looked up): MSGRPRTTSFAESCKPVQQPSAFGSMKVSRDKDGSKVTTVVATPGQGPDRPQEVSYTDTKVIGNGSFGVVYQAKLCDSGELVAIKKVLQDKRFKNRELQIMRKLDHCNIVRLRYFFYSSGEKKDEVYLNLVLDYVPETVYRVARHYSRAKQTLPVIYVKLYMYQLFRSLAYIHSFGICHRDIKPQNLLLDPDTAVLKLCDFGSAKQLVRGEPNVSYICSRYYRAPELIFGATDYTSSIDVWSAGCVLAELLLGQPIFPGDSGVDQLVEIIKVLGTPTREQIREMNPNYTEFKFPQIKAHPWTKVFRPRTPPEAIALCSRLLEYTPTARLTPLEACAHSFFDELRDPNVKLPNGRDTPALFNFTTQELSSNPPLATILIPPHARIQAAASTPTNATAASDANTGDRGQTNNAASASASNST

Cytochrome P450 2C9, sequence (P11712 whole entry, the tested form may be a part): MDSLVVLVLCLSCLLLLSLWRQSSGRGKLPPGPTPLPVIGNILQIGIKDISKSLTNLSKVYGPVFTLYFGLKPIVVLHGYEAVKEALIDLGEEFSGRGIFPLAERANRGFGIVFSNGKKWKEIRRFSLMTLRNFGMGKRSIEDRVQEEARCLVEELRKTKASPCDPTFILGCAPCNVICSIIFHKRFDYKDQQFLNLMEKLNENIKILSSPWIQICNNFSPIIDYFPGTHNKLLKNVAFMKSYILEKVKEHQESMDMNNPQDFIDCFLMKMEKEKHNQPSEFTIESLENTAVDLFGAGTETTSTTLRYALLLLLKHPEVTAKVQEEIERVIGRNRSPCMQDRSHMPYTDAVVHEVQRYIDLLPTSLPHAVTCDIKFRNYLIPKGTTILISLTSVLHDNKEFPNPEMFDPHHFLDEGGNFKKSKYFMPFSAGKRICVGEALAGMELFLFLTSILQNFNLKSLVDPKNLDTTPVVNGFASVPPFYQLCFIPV
CYP2C9, sequence (P11712 whole entry): as the sequence (P11712 whole entry, the tested form may be a part) above
Receptor-type tyrosine-protein kinase FLT3 (Homo sapiens), sequence (P36888 whole entry): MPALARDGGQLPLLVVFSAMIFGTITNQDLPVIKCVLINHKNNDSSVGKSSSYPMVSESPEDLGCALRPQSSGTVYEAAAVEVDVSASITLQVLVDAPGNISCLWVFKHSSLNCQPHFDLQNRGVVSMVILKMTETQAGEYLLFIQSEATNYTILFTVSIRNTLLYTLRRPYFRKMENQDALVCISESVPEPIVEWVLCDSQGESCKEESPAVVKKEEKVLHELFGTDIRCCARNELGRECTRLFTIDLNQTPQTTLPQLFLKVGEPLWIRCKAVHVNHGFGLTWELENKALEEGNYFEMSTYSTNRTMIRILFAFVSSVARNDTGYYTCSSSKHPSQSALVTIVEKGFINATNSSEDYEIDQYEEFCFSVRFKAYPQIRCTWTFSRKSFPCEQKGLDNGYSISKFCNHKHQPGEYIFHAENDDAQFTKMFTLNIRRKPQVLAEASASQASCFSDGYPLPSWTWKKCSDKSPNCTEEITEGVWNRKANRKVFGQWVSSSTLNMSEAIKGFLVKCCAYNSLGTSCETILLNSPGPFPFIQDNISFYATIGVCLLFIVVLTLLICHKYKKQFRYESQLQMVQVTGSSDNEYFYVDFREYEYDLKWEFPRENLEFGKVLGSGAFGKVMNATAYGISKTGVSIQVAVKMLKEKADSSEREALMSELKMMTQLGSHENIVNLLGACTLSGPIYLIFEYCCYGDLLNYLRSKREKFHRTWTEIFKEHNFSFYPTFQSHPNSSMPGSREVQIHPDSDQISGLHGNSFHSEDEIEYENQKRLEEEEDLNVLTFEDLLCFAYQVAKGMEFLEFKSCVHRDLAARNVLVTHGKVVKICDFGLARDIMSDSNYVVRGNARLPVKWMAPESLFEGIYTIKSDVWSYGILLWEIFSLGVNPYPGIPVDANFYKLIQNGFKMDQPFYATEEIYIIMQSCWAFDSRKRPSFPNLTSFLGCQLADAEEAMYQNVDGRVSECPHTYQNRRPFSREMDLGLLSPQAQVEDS
Dual specificity tyrosine-phosphorylation-regulated kinase 1B (Homo sapiens), sequence (Q9Y463 whole entry, looked up): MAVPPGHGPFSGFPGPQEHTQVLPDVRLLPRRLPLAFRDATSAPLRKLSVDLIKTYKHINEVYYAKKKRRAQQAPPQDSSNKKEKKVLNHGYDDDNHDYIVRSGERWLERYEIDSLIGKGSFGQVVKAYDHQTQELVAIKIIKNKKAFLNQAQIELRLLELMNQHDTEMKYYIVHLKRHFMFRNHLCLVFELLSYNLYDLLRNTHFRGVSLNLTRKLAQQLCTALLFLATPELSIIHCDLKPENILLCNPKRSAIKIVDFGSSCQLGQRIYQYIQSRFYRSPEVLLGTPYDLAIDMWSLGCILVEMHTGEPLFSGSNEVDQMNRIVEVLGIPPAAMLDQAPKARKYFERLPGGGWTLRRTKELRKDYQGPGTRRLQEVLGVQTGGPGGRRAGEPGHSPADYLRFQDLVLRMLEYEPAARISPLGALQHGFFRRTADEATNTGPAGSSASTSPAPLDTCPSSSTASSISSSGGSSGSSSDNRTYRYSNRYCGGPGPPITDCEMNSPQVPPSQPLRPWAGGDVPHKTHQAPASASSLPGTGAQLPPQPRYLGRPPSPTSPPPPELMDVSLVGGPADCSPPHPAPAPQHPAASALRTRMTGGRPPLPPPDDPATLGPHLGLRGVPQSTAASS
Indoleamine 2,3-dioxygenase 1, sequence (P14902 whole entry, the tested form may be a part): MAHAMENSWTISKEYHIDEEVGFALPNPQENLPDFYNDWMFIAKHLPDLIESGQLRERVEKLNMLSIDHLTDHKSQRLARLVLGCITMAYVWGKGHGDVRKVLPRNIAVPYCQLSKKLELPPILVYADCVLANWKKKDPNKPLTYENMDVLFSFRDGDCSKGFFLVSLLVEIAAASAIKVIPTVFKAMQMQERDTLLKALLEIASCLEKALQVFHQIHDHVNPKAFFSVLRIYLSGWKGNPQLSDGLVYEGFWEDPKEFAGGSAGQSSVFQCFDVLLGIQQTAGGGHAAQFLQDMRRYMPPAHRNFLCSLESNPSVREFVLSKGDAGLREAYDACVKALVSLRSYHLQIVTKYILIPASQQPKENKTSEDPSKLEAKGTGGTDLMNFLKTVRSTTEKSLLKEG

- K(p,uu,brain) [3]: 0.28%
- IC50 (Cytochrome P450 2C9): 9.27 µM
- IC50 [5]: 0.64 µM
- recovery (BCRP [7]): 43.8%
- inhibition [10]: > 90%
- clearance [11]: 40.5 mL/min/kg
- inhibition at 10 min, 3 µM (CYP2C9): 83.4%
- Vdss [13]: 25.45 L/kg
- recovery (BCRP [14]): 74.9%
- inhibition [15]: > 90%
- fraction unbound [17]: 0.0025
- AUC(0-t) [18]: 22200 ng·h/mL
- half-life [19]: 10.1 h
- Papp A→B (BCRP [21]): 18.8 ×10⁻⁶ cm/s
- Papp B→A (MDR1): 10.3 ×10⁻⁶ cm/s
- Papp B→A (BCRP [23]): 9.97 ×10⁻⁶ cm/s
- inhibition [25]: > 90%
Structure (SMILES): O[C@@H]1CCCC[C@H]1CNc1cc(Br)cc2[nH]ncc12
- Activity [1]: Non-Toxic
- Activity (Mus musculus [2]): Active
- Activity [4]: Non-Toxic
- Activity (Mus musculus [6]): Active
- Activity (Mus musculus [8]): Active
- Activity (Mus musculus [9]): Active
- Activity (Mus musculus [12]): Active
- Activity [16]: Non-Toxic
- Activity [20]: Non-Toxic
- Activity (Mus musculus [22]): Active
- Activity (Mus musculus [24]): Active
